Assays:
[1] = tested on: MMP1 expression by activated synovial fibroblasts (RASFs); test: 'MMP assay': complex trigger-induced MMP1 expression by synovial fibroblasts (MMP1 ELISA); assay type: cell-based; conditions: Homo sapiens, Fibroblast; RASFs, complex trigger, 48 hrs; read-out: MMP1 IC50
Protocol: A 384-well format ELISA for measurement of MMP1 is developed. Various primary antibodies are tested, as well as various ELISA protocols. The following protocol is developed and validated to measure MMP1 levels in SF supernatant in 384 well plates: white Lumitrac 600 384 well plates (Greiner) are coated with 2 μg/mL anti-MMP1 antibody MAB1346 (Chemicon). The antibody is diluted in buffer 40 (1.21 g Tris base (Sigma), 0.58 g NaCl (Calbiochem) and 5 ml 10% NaN3 (Sigma) in 1 L milliQ water and adjusted to pH 8.5). After overnight incubation at 4° C., plates are washed with PBS (80 g NaCl, 2 g KCl (Sigma), 11.5 g Na2HPO4.7H2O and 2 g KH2PO4 in 10 L milliQ; pH 7.4) and blocked with 100 μL/well Casein buffer (2% Casein (VWR International) in PBS). Next day, casein buffer is removed from ELISA plates and replaced by 50 μL/well EC buffer (4 g casein, 2.13 g Na2HPO4 (Sigma), 2 g bovine albumin (Sigma), 0.69 g NaH2PO4.H2O (Sigma), 0.5 g CHAPS (Roche), 23.3 g NaCl, 4 ml 0,5 M EDTA pH 8 (Invitrogen), 5 ml 10% NaN3 in 1 L milliQ and adjusted to pH 7.0). 0.25 mM DTT (Sigma) is added to the thawed samples plates. After removal of the EC buffer, 20 μL of sample is transferred to the ELISA plates. After overnight incubation at 4° C. plates are washed twice with PBS and once with PBST (PBS with 0.05% Tween-20 (Sigma)) and incubated with 35 μL/well biotinylated anti-MMP1 antibody solution (R&D). This secondary antibody is diluted in buffer C (0.82 g NaH2PO4.H2O, 4.82 g Na2HPO4, 46.6 g NaCl, 20 g bovine albumin and 4 mL 0,5M EDTA pH 8 in 2 L milliQ and adjusted to pH 7.0) at a concentration of 5 μg/mL. After 2 h of incubation at RT, plates are washed as described above and incubated with 50 μL/well streptavidin-HRP conjugate (Biosource). Streptavidin-HRP conjugate is diluted in buffer C at a concentration of 0.25 μg/mL. After 45 min, plates are washed as described above and incubated for 5 min with 50 μL/well BM Chem ELISA Substrate (Roche). Readout is performed on the Luminoscan Ascent Luminometer (Labsystems) with an integration time of 200 msec or with an Envision reader (Perkin Elmer).
The increase of MMP1 expression by SFs upon treatment with cytokines relevant in the field of RA (TNF-α, IL1β and OSM) or a combination thereof is shown in FIG. 2 as white bars. For this experiment, SFs are seeded in 96 well plates, 3,000 cells/well. 24 h later, the medium is changed to M199 medium supplemented with 1% FBS. One day after the medium change, cytokines or combinations thereof are added to the cultures, each cytokine being added to a final concentration of 25 ng/mL. 72 h after cytokine addition, the supernatant is collected and processed in the MMP1 ELISA as described in the protocol given above. In parallel with this experiment, SFs are triggered, using the same protocol, with the supernatant of THP1 cells (2-fold diluted in M199+1% FBS) treated with the same cytokines or combinations of cytokines for 48 h in M199 medium+1% FBS. The induction of the MMP1 expression by SFs triggered with the supernatants of TNF-α-treated THP1 cells is stronger (>4.5 fold induction) as compared to the SFs triggered with recombinant TNF-α alone (3-fold induction) and almost equals the 5-fold induction obtained by a mixture of 3 purified cytokines (TNF-α, IL1βb, OSM). […] As the role of TNF-α in the RA pathogenesis is validated (TNF-α-blockers such as Infliximab and Etanercept show some efficacy in the treatment of RA patients) and the THP-1 cells are representative for monocytes/macrophages present in the joint of RA patients, the TNF-α-based trigger mixture prepared by contacting THP-1 cells with TNF-α will contain factors present in the joints of RA patients and subsequently is relevant to RA. This TNF-α-based complex trigger, further referred to as the ‘complex trigger’, will further be used as basis for the ‘MMP assay’. […]

MAPKAPK5 = target: T1, MAPKAPK5 (Homo sapiens, UniProt Q8IW41); test: MAPKAP-K5 FlashPlate kinase assay; assay type: biochemical; conditions: 0.6 μM ATP, 30 minutes, room temperature
T1 sequence (Q8IW41 1-471 isoform Q8IW41-2): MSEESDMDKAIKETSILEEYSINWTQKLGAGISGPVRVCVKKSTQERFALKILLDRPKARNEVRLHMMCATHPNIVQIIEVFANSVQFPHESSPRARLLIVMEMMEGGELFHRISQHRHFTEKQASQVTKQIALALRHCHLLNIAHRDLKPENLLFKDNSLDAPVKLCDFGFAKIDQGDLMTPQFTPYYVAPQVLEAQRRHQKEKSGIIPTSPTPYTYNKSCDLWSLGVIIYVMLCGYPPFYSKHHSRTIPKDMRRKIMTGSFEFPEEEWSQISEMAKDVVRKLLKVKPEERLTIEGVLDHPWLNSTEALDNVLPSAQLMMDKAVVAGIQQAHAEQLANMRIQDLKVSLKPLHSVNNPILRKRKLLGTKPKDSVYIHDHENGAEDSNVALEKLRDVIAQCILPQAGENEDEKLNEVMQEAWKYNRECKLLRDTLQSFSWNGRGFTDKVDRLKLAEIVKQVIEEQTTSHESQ
Protocol: MAPKAP-K5 reactions are performed in FlashPlate format using 0.1 or 0.2 μCi 33P-ATP; 0.6 μM ATP; 1 mU MAPKAP-K5; 3 μM MAPKAP-K5 peptide substrate, incubated at room temperature for 30 minutes.
The MAPKAP-K5 kinase reaction is performed in a 384 well polypropylene plate (Matrix Technologies) and then transferred to a streptavidin-coated 384 well flashplate (Perkin-Elmer). To wells containing 2 μL test compound or standard inhibitor, 13 μL Enzyme mix or diluent are added using a Hydra (Robbins Scientific). Reactions are started by addition of 10 μL of [2.5×] substrate cocktail using a Multidrop (Thermo-Labsystems), to give final concentrations in the assay of: • 1 mU MAPKAP-K5 • 3 μM MAPKAP-K5 peptide substrate • 0.6 μM ATP • 0.004 μCi [33P]-γ-ATP/μL • 1× reaction buffer
Plates are incubated at room temperature for 30 minutes. Reactions are terminated by the addition of 25 μL EDTA (50 mM) to each well using a Micro-fill (Biotek). Reactions are transferred to a streptavidin-coated flashplate using a Zymark robotic system. Plates are incubated for 60 minutes at room temperature. All wells are washed 3 times with 100 μl phosphate buffered saline using a Tecan plate washer. Radioactivity is determined by scintillation counting of the flashplate (empty wells) on a Packard TopCount.
Enzyme Mix: • Enzyme • 50 mM Tris Hcl (pH 7.5) • 0.1 mM EGTA • 2 mM DTT • 1 mg/mL BSA
Reaction Buffer: • 50 mM Tris Hcl (pH 7.5) • 0.1 mM EGTA • 10 mM Magnesium acetate • 2 mM DTT

Question: Which IC50 [1] does the source give for `CC(C)N1CC2CCC1CN2c1ccc(Nc2ncc(-c3coc(C(N)=O)c3)n3ccnc23)cc1` (centres unmarked) [Compound 10, 4-{8-(4-(5-isopropyl-1-2,5-diazabicyclo[2.2.2]octan-2-yl)phenylamino)-imidazo[1,2-a]pyrazin-5-yl}-furan-2-carboxamide] here?
Answer: > 1000 nM

Question: What about the IC50 (MAPKAPK5) of the same compound?
Answer: 101 to 500 nM

Question: With `CC(C)N1C[C@H]2C[C@@H]1CN2c1ccc(Nc2ncc(-c3coc(C(N)=O)c3)n3ncnc23)cc1` [Compound 27, 4-[8-({4-[(1R,4R)-5-isopropyl-2,5-diazabicyclo[2.2.1]hept-2-yl]phenyl}amino)[1,2,4]triazolo[1,5-a]pyrazin-5-yl]-2-furamide] as the compound, how does the IC50 (MAPKAPK5) read?
Answer: 0.01 to 100 nM

Question: Which results are given for `CC(C)N1C2CCC1CN(c1ccc(Nc3ncc(-c4coc(C(N)=O)c4)n4ccnc34)cc1)C2` [Compound 14, 4-{8-(4-(8-isopropyl-3,8-diazabicyclo[3.2.1]octan-3-yl)phenylamino)-imidazo[1,2-a]pyrazin-5-yl}-furan-2-carboxamide]?
Answer: IC50 [1]: > 1000 nM; IC50 (MAPKAPK5): 101 to 500 nM
